According to PMC3501516, “Anti-Diabetic Efficacy and Impact on Amino Acid Metabolism of GRA1, a Novel Small-Molecule Glucagon Receptor Antagonist” (PLoS ONE, 2012):
Marks after values point to notes of the source that are not given here.

Legend:
[1] = Pharmacokinetics / plasma GRA1 concentrations in hGCGR mice; assay type: in vivo, hGCGR mouse; conditions: single oral dose 2 mg/kg
hGCGR HFD/STZ mice = experiment: Antihyperglycemic efficacy in hGCGR HFD/STZ mice (acute, chronic, combination with des-fluoro-sitagliptin); assay type: in vivo, hGCGR mouse
Excerpt: The present study made use of a line of hGCGR-expressing mouse (“hGCGR mouse”) generated previously by substituting the hGCGR gene for the mouse GCGR gene. These mice were crossed with C57BL/6J.ob/+ mice (Jackson Laboratories, Bar Harbor, ME) to obtain an hGCGR.ob/+ mouse line. The hGCGR.ob/+ mice were then intercrossed to obtain hGCGR.ob/ob, hGCGR.ob/+, and hGCGR.+/+ mice (with the hGCGR.ob/+ and hGCGR.+/+ mice serving as littermate controls). […] obese (DIO) hGCGR mice were generated by maintaining hGCGR mice on a high-fat diet (HFD) in which 45–60% of calories were in fat (Product S3282, Bio-Serv, Frenchtown, NJ). High-fat-diet-streptozotocin-treated (HFD/STZ) diabetic mice were generated in-house as previously described.
Acute glucose lowering was studied in non-fasted hGCGR.ob/ob mice and HFD/STZ mice administered single doses p.o. of 1, 3 and 10 mg/kg GRA1 in 10 mL/kg 0.5% aqueous methylcellulose. Animals were fasted during the interval between dosing and the final blood glucose measurement. Glucose was measured in blood from tail bleeds using a OneTouch glucometer. In the experiments with hGCGR HFD/STZ mice, treatment groups were matched with respect to body weight and blood glucose levels.
Animals were dosed chronically with GRA1 and the DPP-4 inhibitor des-fluoro-sitagliptin by administering these agents as food admixtures. The admixtures were prepared in-house and by Research Diets (New Brunswick, NJ), with drug concentrations adjusted weekly on the basis of average food consumption and animal weight to provide targeted daily doses. In the GRA1 experiments, the targeted doses were 3, 6, 10, and 30 mg/kg•day. In des-fluoro-sitagliptin experiments, the targeted dose was 200 mg/kg•day, a relatively high amount necessary because this compound has a half-life in rodents of 1–2 h.
Plasma glucagon and active GLP-1 were measured using commercial ELISA kits (Linco Research Immunoassay, St. Charles, MO). […] Plasma insulin was determined by ELISA with a commercial kit (ALPCO Diagnostics, Windham, NH). Plasma concentrations of glycated hemoglobin A1c (HbA1c) were measured using a Micromat II test kit from Bio-Rad Laboratories (Hercules, CA). Total cholesterol, low-density lipoprotein cholesterol (LDL-c) and non-LDL-c, and aspartate aminotransferase were measured using a Roche P Modular Clinical Chemistry analyzer (Indianapolis, IN).
Figure 5 GRA1 lowers glucose in hGCGR HFD/STZ mice and further enhances the efficacy of a DPP-4 inhibitor. (A) Mean (±SEM) blood glucose hGCGR HFD/STZ mice treated with a single dose of 1, 3, or 10 mg/kg GRA1. (B) Non-fasted blood glucose concentrations in hGCGR HFD/STZ mice treated for 6 weeks with 10 mg/kg·day GRA1, 200 mg/kg·day des-fluoro-sitagliptin (des-F-sita), or the two agents in combination. (Additional data from this study are in Table 4.) *p<0.05, **p<0.01, and ***p<0.001 versus HFD/STZ controls; ^#non-significant (p>0.05) versus non-STZ controls; n = 8–15 animals per group.

in vivo = conditions: hGCGR.ob/ob, mouse, 3 mg/kg
[2] = target: T1, GIPR (glucose-dependent insulinotropic peptide receptor) (Homo sapiens, UniProt P48546); experiment: Inhibition of GIP-stimulated cAMP production in CHO cells expressing GIPR; assay type: cell-based
T1 sequence (P48546 22-466): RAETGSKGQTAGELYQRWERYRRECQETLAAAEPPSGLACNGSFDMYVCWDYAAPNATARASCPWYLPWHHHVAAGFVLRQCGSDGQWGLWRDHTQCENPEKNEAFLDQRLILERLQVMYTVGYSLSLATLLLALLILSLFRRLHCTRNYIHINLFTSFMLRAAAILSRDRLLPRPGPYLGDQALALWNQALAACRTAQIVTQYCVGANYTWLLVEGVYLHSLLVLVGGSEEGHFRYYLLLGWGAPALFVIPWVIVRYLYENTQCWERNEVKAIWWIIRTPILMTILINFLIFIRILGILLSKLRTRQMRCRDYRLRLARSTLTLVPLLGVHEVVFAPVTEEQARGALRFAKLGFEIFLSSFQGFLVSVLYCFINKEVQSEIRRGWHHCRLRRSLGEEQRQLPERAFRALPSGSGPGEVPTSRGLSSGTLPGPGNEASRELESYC
Description: (§1) Transfected Chinese hamster ovary (CHO) cell lines were acquired and maintained as previously described [17], [20]. These included separate cell lines stably expressing human GCGR (hGCGR), mouse GCGR, rhesus GGCR, glucose-dependent insulinotropic peptide receptor (GIPR), GLP-1 receptor (GLP-1R), pituitary adenylate cyclase-activating polypeptide receptor type 1 (PAC1R), and vasoactive adenylate cyclase-activating polypeptide receptor type 2 (VPAC2R). […] Functional antagonism was assayed by measuring the production of cAMP in intact CHO cells stimulated by agonists specific for their cognate receptors (i.e., glucagon for GCGR-expressing cell lines, GIP for the GIPR-expressing line, etc.).

mouse GCGR = target: T2, mouse GCGR (Mus musculus, UniProt Q61606); experiment: Inhibition of glucagon-stimulated cAMP production in CHO cells expressing mouse GCGR; assay type: cell-based
T2 construct: expressed in transfected cells
T2 sequence (Q61606 27-485): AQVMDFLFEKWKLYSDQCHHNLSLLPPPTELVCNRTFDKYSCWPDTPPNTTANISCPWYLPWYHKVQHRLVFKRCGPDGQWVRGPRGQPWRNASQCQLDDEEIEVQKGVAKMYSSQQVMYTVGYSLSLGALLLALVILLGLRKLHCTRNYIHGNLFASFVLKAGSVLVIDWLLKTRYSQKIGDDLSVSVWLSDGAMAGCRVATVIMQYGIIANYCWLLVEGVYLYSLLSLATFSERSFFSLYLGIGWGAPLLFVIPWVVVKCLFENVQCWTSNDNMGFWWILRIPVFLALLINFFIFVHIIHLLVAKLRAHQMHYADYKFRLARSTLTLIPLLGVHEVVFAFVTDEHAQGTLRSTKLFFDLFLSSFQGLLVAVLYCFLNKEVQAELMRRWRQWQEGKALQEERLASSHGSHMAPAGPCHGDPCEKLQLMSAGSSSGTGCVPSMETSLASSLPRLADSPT
Description: as §1

COc1ccc2cc(-c3cc(-c4cc(C(F)(F)F)ccc4F)nn3[C@@H](C)c3ccc(C(=O)NCCC(=O)O)cc3)ccc2c1 [GRA1, N-[4-((1S)-1-{3-(2-fluoro-5-trifluoromethylphenyl)-5-[6-methoxynaphth-2-yl]-1H-pyrazol-1-yl}ethyl)benzoyl]-β-alanine]
half-life ([1]; mouse, plasma, read-out: Apparent plasma terminal half-life (converted)): 6.8 h
Mean rate of absorption from the gut [1]: 69%
Route of excretion [1]: nearly all absorbed drug was subsequently excreted unchanged via the bile
HbA1c (hGCGR HFD/STZ mice; 5 weeks of treatment, GRA1 10 mg/kg, Des-F-sita 200 mg/kg, control diet 6.1±0.4): 5.6±0.4%
6-h fasting blood glucose (hGCGR HFD/STZ mice; 5 weeks of treatment, GRA1 10 mg/kg, Des-F-sita 200 mg/kg, control diet 323±33): 297 ± 39 mg/dL
Antihyperglycemic effect during chronic dosing (non-fasted blood glucose) (hGCGR HFD/STZ mice; 6 weeks, GRA1 10 mg/kg·day, des-fluoro-sitagliptin 200 mg/kg·day): significant and sustained
Liver Triglyceride (hGCGR HFD/STZ mice; 6 weeks, necropsy tissue, GRA1 10 mg/kg, Des-F-sita 200 mg/kg, control diet 143±10): 163 ± 11 µg/mg
Free fatty acid (hGCGR HFD/STZ mice; 6 weeks, terminal plasma, GRA1 10 mg/kg, Des-F-sita 200 mg/kg, control diet 1.4±0.2): 1.3 ± 0.3 mM
Active GLP-1 (hGCGR HFD/STZ mice; 6 weeks, terminal plasma, GRA1 10 mg/kg, Des-F-sita 200 mg/kg, control diet 2.5±0.1): 2.7 ± 0.1 pM
Inactive GLP-1 (hGCGR HFD/STZ mice; 6 weeks, terminal plasma, GRA1 10 mg/kg, Des-F-sita 200 mg/kg, control diet 8.1±1.1): 8.6 ± 0.4 pM
Plasma glucagon (hGCGR HFD/STZ mice; 6 weeks, terminal plasma, GRA1 10 mg/kg, Des-F-sita 200 mg/kg, control diet 133±21): 209±24* pg/ml
Triglyceride (hGCGR HFD/STZ mice; 6 weeks, terminal plasma, GRA1 10 mg/kg, Des-F-sita 200 mg/kg, control diet 184±26): 145±22* mg/dL
Blood glucose after single dose versus non-diabetic controls (hGCGR HFD/STZ mice; single dose 10 mg/kg): comparable to those observed in non-diabetic control animals for 24 h
Effect on blood glucose, single dose (hGCGR HFD/STZ mice; single doses of 3 and 10 mg/kg): reduced blood glucose significantly and substantially
concentration at 1 h (in vivo): 1120 ± 800 nM
concentration at 3 h (in vivo): 920 ± 100 nM
IC50 [2]: 933 nM
IC50 (mouse GCGR): 178 nM
